Experimental data: US20160278376A1 (priority 2013, published 2016)
Converted amounts (≈) assume the structure as drawn. Like-named read-outs stand apart in the source and are kept apart here.

Columns and labels:
[1] = tested on: Las; type: in vivo
[2] = tested on: E. coli Stratagene strain “Solopack”; assay: Paper disc inhibition assay on E. coli lawn; type: cell-based; conditions: 20 μl drops without dilution (100% strength) on 6 mm discs; 24 hrs
Description: FIG. 1. Effect of Carvacrol, Cinnamaldehyde and Geraniol against E. coli cells. Twenty microliter drops of three chemicals (at 100% strength) were placed on paper assay discs on top of E. coli lawn. Control disc included a solution of 70% ethanol without any added essential oil. Dotted line circles indicate zone of inhibition. Photo taken at 24 hrs after plating.
The essential oils cinnamadehyde (Aldrich, W228605; ≧98% purity), carvacrol (Aldrich, W224502; ≧98% purity) and geraniol (Aldrich, 163333; 98% purity) were purchased Sigma-Aldrich (St. Louis, Mo.). A single colony of E. coli Stratagene strain “Solopack” was inoculated in 5 ml of Luria Broth (LB) liquid medium with shaking at 37° C. overnight. Two hundred μl of the E. coli overnight cultures were placed on an LB agar plate, and spread evenly with glass beads. The bacterial culture was allowed to absorb into the LB medium. Within 30 min after absorption, 20 μl drops of the three essential oils (cinnamaldehyde, carvacrol or geraniol) were separately placed without dilution on 6 mm discs (Whatman, Cat No. 2017-006; GE healthcare Life Science) and the treated disks were placed on top of the plates with E. coli. The plates were then incubated for 24 hrs. Photos were taken at 24 hrs after plating (see FIG. 1). Experiments were repeated, with the same results.

[3] = tested on: Las; type: in vivo; conditions: 1% (w/v) in 70% ethanol, foliar spray to run off; 1-2 weeks later, remained positive for at least several months; positive = Ct ≤ 35
[4] = tested on: Swingle rootstocks; assay: Phytotoxicity of soil drench on citrus; type: in vivo
Description: (§1) To further test the phytoxicity of cinnamaldehyde or carvacrol in 70% ethanol, and 70% ethanol alone on citrus plants, we applied 1% and 10% cinnamaldehyde or carvacrol (each dissolved in 70% ethanol) on Swingle rootstocks (˜6 inches to 1 foot tall) by adding sufficient liquid to soil of potted citrus to the point of run-off of the drench. We also applied 70% ethanol as control in these two methods.

[5] = tested on: Swingle rootstocks and sweet orange; assay: Phytotoxicity of foliar spray / leaf painting on citrus; type: in vivo
Description: as §1, with “To” for “To further”, “1% (w/v)” for “1%”, “10% (w/v)” for “10%”, “spraying” for “adding sufficient liquid to soil of potted citrus”, “spray and also sweet orange (˜3 foot tall) by painting one or both sides of a portion of the leaf surface.” for “drench.”

[6] = tested on: Hamlin sweet orange trees grafted onto Swingle rootstock; conditions: in vivo
[7] = tested on: L. crescens strain BT-1 (Lcr); type: cell-based, Liberibacter crescens; conditions: 5 days
[8] = tested on: Las; type: in vivo; conditions: 1.5% (w/v) in 100% DMSO
[9] = tested on: Lcr; assay: microbe, parasite or virus in culture; type: cell-based; conditions: Liberibacter crescens, read-out: Minimum Inhibitory Concentration (MIC)
[10] = 1% in 70% ethanol (carvacrol: 8 mg/ml (1%), observable by 60 hrs), potted Swingle rootstocks
[11] = 10% w/v in 70% ethanol, chlorosis and leaf curling, but not defoliation
[12] = 1% (w/v) in 70% ethanol, sprayed to run-off on Swingle rootstocks, painted on sweet orange leaves, carvacrol effect observable by 24 hours
[13] = 20 μl at 2 mg/ml in 70% ethanol on 6 mm discs

O=C/C=C/c1ccccc1 [cinnamaldehyde]
PCR test for Las ([1]; 0.3% in 50% DMSO, foliar spray to run off): remained infected
PCR test for Las in new shoots ([1]; 1.5% in 50% DMSO, foliar spray to run off, first tests about 3 weeks after defoliation): completely Las negative
outcome of weekly qPCR tests for Las over nine months ([1]; 1.5% in 50% DMSO, foliar spray, no detectable Liberibacter infection and no citrus greening symptoms): cured
inhibition of the growth of E. coli (zone of inhibition) [2]: more inhibitory than geraniol
qPCR test for Las after treatment [3]: qPCR positive
phytotoxicity to citrus, soil drench [4, 10]: not at all phytotoxic
phytotoxicity to citrus, soil drench [4, 11]: moderately phytotoxic
phytotoxicity to citrus, foliar application [5, 12]: not at all phytotoxic
phytotoxicity to citrus, foliar application [5, 11]: moderately phytotoxic
effect on foliage of treated trees [6]: completely defoliated
inhibition of the growth of Lcr (zone of inhibition) [7, 13]: strong inhibition
level down to which inhibitory to Lcr in the disc tests ([7]; two-fold serial dilutions in 70% ethanol on 6 mm discs): 1 mg/mL
PCR test for Las in new shoots ([8]; 2 x 20 ml trunk injection, first tests about 3 weeks after defoliation): completely negative
weekly PCR tests for Las over 9 months ([8]; trunk injection, thus cured): remained completely PCR negative
MIC [9]: 5 µg/mL (≈ 37.8 µM)

Cc1ccc(C(C)C)cc1O [carvacrol, reference compound]
inhibition of the growth of E. coli (zone of inhibition) [2]: more inhibitory than cinnamaldehyde
phytotoxicity to citrus, soil drench [4, 10]: highly phytotoxic
phytotoxicity to citrus, foliar application [5, 12]: highly phytotoxic
inhibition of the growth of Lcr (zone of inhibition) [7, 13]: slight inhibition

CC(C)=CCC/C(C)=C/CO [geraniol, reference compound]
inhibition of the growth of E. coli (zone of inhibition) [2]: inhibitory
inhibition of the growth of Lcr (zone of inhibition) ([7]; 20 μl of two-fold dilutions 2 mg/ml to 0.125 mg/ml in 70% ethanol on 6 mm discs): not inhibitory
